Laboratory results published in US5457108A, “5-oxo-dibenzo[a,d]cyclohepta-1,4-dienes” (Bayer Aktiengesellschaft, priority 1992, dated 1995).

Tests used:
HIV protease = biological target: T1, HIV protease (Human immunodeficiency virus type 1 group M subtype B, UniProt P04585); experiment: HIV protease enzyme test (cleavage of synthetic Gag peptide, RP-HPLC); assay type: biochemical; details: purified HIV protease, synthetic peptide substrate, read-out: IC50 (50% inhibition of the protease activity)
T1 construct: purified HIV protease was incubated with synthetic peptide
Procedure: This is verified by means of an HIV-specific protease enzyme test.
The results of the examples listed below were determined according to the HIV test system described in the following references [cf. Hansen, J., Billich, S., Schulze, T., Sukrow, S. and Molling, K (1988), EMBO Journal, Vol. 7, No. 6, pp. 1785-1791]: purified HIV protease was incubated with synthetic peptide which imitates a cleavage site in the Gag precursor protein and represents an in-vivo cleavage site for the HIV protease. The cleavage products of the synthetic peptide which resulted were analysed by means of reverse phase high performance liquid chromatography (RP-HPLC). The IC50 values which are given refer to the substance concentrations which, under the test conditions set out above, effect a 50% inhibition of the protease activity.

HIV = HIV infection in cell culture (syncytium formation in HIV-infected human PBLs); assay type: cell-based; details: Human immunodeficiency virus 1, Lymphocyte, 72 h; HIV-infected normal human blood lymphocytes (PBLs), 37° C., evaluated day 3 to 6 after infection; read-out: IC50 (50% of the virus-induced syncytia suppressed)
Procedure: HIV infection in cell culture
The HIV test was carried out, with minor modifications, according to the method of Pauwels et al. [cf. Journal of Virological Methods 20, (1988), 309-321].
Normal human blood lymphocytes (PBLs) were enriched through Ficoll-Hypaque and stimulated in RPMI 1640, 20% fetal calf serum containing phytohaemagglutinin (90 μg/ml) and interleukin-2 (40 U/ml). For infection with the infectious HIV, the PBLs were pelleted and the cell pellet was subsequently suspended in 1 ml of HIV virus adsorption solution and incubated at 37° C. for 1 hour.
The virus adsorption solution was centrifuged and the infected cell pellet was taken up in growth medium in such a way that the suspension was adjusted to 1×10^5 cells per ml. The cells infected in this manner were pipetted, at 1×10^4 cells/well, into the wells of 96-well microtitre plates.
The first vertical row of the microtitre plate contained only growth medium and cells which were not infected but which otherwise had been treated exactly as described above (cell control). The second vertical row of the microtitre plate contained only HIV-infected cells (virus control) in growth medium. […]
The test mixtures were incubated at 37° C. until the syncytium formation which is typical for HIV appeared in the untreated virus control (between day 3 and 6 after infection) and it was then evaluated microscopically. […]

| Compound | IC50 (HIV protease) [nM] | IC50 (HIV) [µM] |
| --- | --- | --- |
| O=C(NCc1ccc2c(c1)[C@@H](O)[C@H](O)c1cc(CNC(=O)OCc3ccccc3)ccc1C2=O)OCc1ccccc1 (relative stereo) [Example 4, (trans)-2,8-Bis-phenylmethoxycarbonylaminomethyl-10,11-dihydroxy-5-oxo-dibenzo[a,d]cyclohepta-1,4-diene] | 5 | 10 |
| O=C(NCc1ccc2c(c1)[C@@H](O)[C@@H](O)c1cc(CNC(=O)OCc3ccccc3)ccc1C2=O)OCc1ccccc1 [Example 5, (cis)-2,8-Bis-phenylmethoxycarbonylaminomethyl-10,11-dihydroxy-5-oxo-dibenzo[a,d]cyclohepta-1,4-diene] | – | 10 |
| CC(C)(C)S(=O)(=O)CC(Cc1cccc2ccccc12)C(=O)NCc1ccc2c(c1)C(O)C(O)c1cc(CNC(=O)C(Cc3cccc4ccccc34)CS(=O)(=O)C(C)(C)C)ccc1C2=O (stereo not drawn) [Example 6, (trans)-10,11-Dihydroxy-2,8-bis-[5,5-dimethyl-4,4-dioxo-2-(1-naphthylmethyl)-4-thiahexanoylaminomethyl-5-oxodibenzo[a,d]cyclohepta-1,4-diene] | 2000 | – |
